Read-outs that look alike come from different tables or passages of the source.
Tests used:
[1] = test system: HIV-1IIIB infected H9 cells (H9/HIV-1IIIB) and MT-2 cells; test: HIV-1 mediated cell-cell fusion (dye transfer assay); format: cell-based; details: H9/HIV-1IIIB with MT-2 cells; read-out: EC50 (μM) (M ± SD) for inhibition of Cell fusion
Procedure: Inhibition of cell-cell fusion. A dye transfer assay was used for detection of HIV-1 mediated cell fusion as previously described (11,25,26). H9/HIV-1IIIB cells were labeled with a fluorescent reagent, Calcein-AM (Molecular Probes, Inc., Eugene, Oreg.) and then incubated with MT-2 cells (ratio=1:5) in 96-well plates at 37° C. for 2 hrs in the presence or absence of compounds tested. The fused and unfused Cacein-labeled HIV-1-infected cells were counted under an inverted fluorescence microscope (Zeiss, Germany) with an eyepiece micrometer disc. The percentage of inhibition of cell fusion and the IC50 values were calculated as previously described (11).

[2] = test system: HIV-1 IIIB; details: for EC50: read-out: EC50 (μM) (M ± SD) for inhibition of p24, HIV-1 IIIB, MT-2 cells
Procedure: Assessment of anti-HIV-1 infectivity. The inhibitory activity of compounds on infection by laboratory-adapted HIV-1 strains was determined as previously described (34). […] For the time-of-addition assay, compounds were added at various time post-infection. Then the culture supernatants were removed and fresh media were added. On the fourth day post-infection, 100 μl of culture supernatants were collected from each well, mixed with equal volumes of 5% Triton X-100 and assayed for p24 antigen, which was quantitated by ELISA (23). Briefly, the wells of polystyrene plates (Immulon 1B, Dynex Technology, Chantilly, Va.) were coated with HIV immunoglobulin (HIVIG), which was prepared from plasma of HIV-seropositive donors with high neutralizing titers against HIV-1IIIB as previously described (36) in 0.085 M carbonate-bicarbonate buffer (pH 9.6) at 4° C. overnight, followed by washes with PBS-T buffer (0.01M PBS containing 0.05% Tween-20) and blocking with PBS containing 1% dry fat-free milk (Bio-Rad Inc., Hercules, Calif.). Virus lysates were added to the wells and incubated at 37° C. for 1 h. […] Reactions were terminated by addition of 1N H2SO4. […] Recombinant protein p24 (US Biological, Swampscott, Mass.) was included for establishing standard dose response curve.

[3] = test system: HIV-1 IIIB; test: HIV-1-mediated cytopathic effect (CPE); format: cell-based; details: read-out: EC50 (μM) (M ± SD) for inhibition of CPE
Text: We thus purchased these compounds and tested their inhibitory activity on: 1) HIV-1 replication (p24 production); 2) HIV-1-mediated cytopathic effect (CPE); and 3) HIV-1 Env-induced cell-cell fusion; and their cytotoxicity to MT-2 cells.

[4] = test system: MT-2 cells
Procedure: Detection of in vitro cytotoxicity. The in vitro cytotoxicity of compounds for MT-2 cells was measured by a colorimetric method using XTT tetrazolium dye as previously described (21). Briefly, 100 μl of a compound at a graded concentration was added to equal volume of cells (5×10^5/ml) in a well of 96-well plates. After incubation at 37° C. for 4 days, XTT (1 mg/ml; […]; PolySciences, Inc., Warrington, Pa.) was added. Four hours later, the soluble intracellular formazan was quantitated colorimetrically at 450 nm with a reference at 570 nm.

[5] = read-out: Cytotoxicity CC50 (μM) (M ± SD), MT-2 cells

Row | SMILES | EC50 [1] [µM] | EC50 [2] [µM] | EC50 [3] [µM] | CC50 [4] [µM] | SI (CC50/EC50) [2] | SI (CC50/EC50) ([2]; selectivity index) | CC50 [4, 5] [µM]
1 | CCN1C(=O)S/C(=C\c2ccc(-c3cc(C(=O)O)ccc3Cl)o2)C1=O [NB236] | > 100 | > 100 | > 100 | 113 ± 8.64 |  |  | 
2 | C#CCN1C(=O)S/C(=C\c2ccc(-c3cc(C(=O)O)ccc3C)o2)C1=O [NB205] | > 100 | > 100 | > 100 | > 435 |  |  | 
3 | O=C1NC(=S)S/C1=C\c1ccc(-c2cccc(C(=O)O)c2)o1 [NB184] | > 100 | > 100 | > 100 | > 483 | >28.93 |  | 
4 | COC(=O)c1ccccc1N1C(=O)/C(=C/c2ccc(-c3ccc(Cl)c(C(=O)O)c3)o2)SC1=S [NB226] | > 100 | 2.12 ± 0.38 | 3.46 ± 0.2 | > 320 |  |  | 
5 | Cc1ccc(N2C(=O)/C(=C/c3ccc(-c4cccc(C(=O)O)c4)o3)SC2=S)c(C)c1 [NB146] | 1.08 | 0.299 ± 0.046 | 1.77 ± 0.368 |  |  | 103.15 | 33.8 ± 4.44
6 | CN1C(=O)/C(=C/c2ccc(-c3cccc(C(=O)O)c3)o2)SC1=S [NB151] | 43.7 | 0.667 ± 0.174 | 3.86 ± 0.58 | 125 ± 14.7 | 187.17 |  | 
7 | Cc1cccc(NC(=O)CN2C(=O)S/C(=C\c3ccc(-c4ccc(Cl)c(C(=O)O)c4)o3)C2=O)c1 [NB207] | > 100 | > 100 | > 100 | > 464 |  |  | 
8 | Cc1c(C(=O)O)cccc1-c1ccc(/C=C2\SC(=O)N(CC(=O)Nc3ccccc3F)C2=O)o1 [NB195] | > 100 | > 100 | > 100 |  |  |  | 154 ± 6.93
9 | O=C1/C(=C/c2ccc(-c3cccc(Cl)c3)o2)SC(=S)N1c1ccccc1 [NB239] | > 100 | > 100 | > 100 |  |  |  | > 402
10 | C#CCN1C(=O)S/C(=C\c2ccc(-c3ccc(Cl)c(C(=O)O)c3)o2)C1=O [NB200] | > 100 | > 100 | > 100 | > 413 |  |  | 
11 | O=C1NC(=S)S/C1=C\c1ccc(-c2cc(C(=O)O)ccc2Cl)o1 [NB190] | > 100 | > 100 | > 100 | > 437 |  |  | 
12 | O=C1NC(=S)S/C1=C\c1ccc(-c2ccc(Cl)c(C(=O)O)c2)o1 [NB185] | > 100 | 76.9 ± 3.52 | 50.3 ± 4.09 | > 437 | >5.68 |  | 
13 | COC(=O)CN1C(=O)S/C(=C\c2ccc(-c3cc(C(=O)O)ccc3Cl)o2)C1=O [NB234] | > 100 | > 100 | > 100 |  |  |  | > 379
14 | CCC(C)N1C(=O)S/C(=C\c2ccc(-c3cc(C(=O)O)ccc3Cl)o2)C1=O (stereo not shown) [NB232] | > 100 | > 100 | > 100 | > 394 |  |  | 
15 | Cc1cccc(N2C(=O)/C(=C/c3ccc(-c4cccc(C(=O)O)c4)o3)SC2=S)c1 [NB150] | 0.56 ± 0.05 | 0.308 ± 0.047 | 0.403 ± 0.119 |  |  | 125.69 | 38.7 ± 5.85
16 | COc1ccc(CN2C(=O)/C(=C/c3ccc(-c4ccc(Cl)c(C(=O)O)c4)o3)SC2=S)cc1 [NB211] | 68.6 ± 1.83 | 1.13 ± 0.103 | 2.23 ± 0.515 | 93.2 ± 4.41 | 82.24 |  | 
17 | O=C(O)c1cc(-c2ccc(/C=C3\SC(=S)N(C4CCCCC4)C3=O)o2)ccc1Cl [NB219] | 4.3 ± 0.134 | 0.087 ± 0.04 | 0.401 ± 0.067 |  |  | 78.97 | 6.87 ± 0.29
18 | Cc1cccc(NC(=O)CN2C(=O)S/C(=C\c3ccc(-c4cc(C(=O)O)ccc4Cl)o3)C2=O)c1 [NB198] | > 100 | > 100 | > 100 | > 322 |  |  | 
19 | C=CCN1C(=O)/C(=C/c2ccc(-c3cccc(C(=O)O)c3C)o2)SC1=S [NB189] | 4.33 ± 0.078 | 0.984 ± 0.155 | 2.28 ± 0.389 | > 414 | >421.05 |  | 
20 | O=C(O)c1cc(-c2ccc(/C=C3\SC(=S)N(Cc4ccc(F)cc4)C3=O)o2)ccc1Cl [NB208] | 6.668 ± 0.042 | 1.84 ± 0.654 | > 100 |  |  | 29.77 | 54.6 ± 15.3

Row | SMILES | EC50 [1] [µM] | EC50 [2] [µM] | EC50 [3] [µM] | CC50 [4] [µM] | SI (CC50/EC50) [2] | SI (CC50/EC50) ([2]; selectivity index) | CC50 [4, 5] [µM]
21 | Cc1ccc(NC(=O)CN2C(=O)S/C(=C\c3ccc(-c4ccc(Cl)c(C(=O)O)c4)o3)C2=O)cc1 [NB199] | > 100 | > 100 | > 100 | > 322 |  |  | 
22 | Cc1ccc(C(=O)O)cc1-c1ccc(/C=C2\SC(=O)N(c3ccccc3)C2=O)o1 [NB187] | > 100 | > 100 | > 100 |  |  |  | 363 ± 40.1
23 | Cc1ccc(NC(=O)CN2C(=O)S/C(=C\c3ccc(-c4cc(C(=O)O)ccc4Cl)o3)C2=O)cc1 [NB197] | > 100 | > 100 | > 100 | > 341 |  |  | 
24 | O=C(O)CN1C(=O)/C(=C/c2ccc(-c3cccc(C(=O)O)c3)o2)SC1=S [NB180] | > 100 | > 100 | > 100 | > 411 |  |  | 
25 | O=C(O)CN1C(=O)/C(=C/c2ccc(-c3cc(C(=O)O)ccc3Cl)o2)SC1=S [NB235] | > 100 | > 100 | > 100 | > 378 |  |  | 
26 | O=C(O)c1cccc(-c2ccc(/C=C3\SC(=S)N(C4CCCCC4)C3=O)o2)c1 [NB181] | > 100 | 0.218 ± 0.024 | 0.605 ± 0.194 |  |  | >1777.78 | > 387
27 | COc1ccccc1N1C(=O)/C(=C/c2ccc(-c3cccc(C(=O)O)c3)o2)SC1=S [NB148] | 34.9 | 2.65 |  | > 368 | >266.67 |  | 
28 | O=C(O)c1cccc(-c2ccc(/C=C3\SC(=O)N(c4ccc(Cl)cc4)C3=O)o2)c1 [NB160] | > 100 | > 100 | > 100 |  |  |  | > 376
29 | O=C(O)c1cccc(-c2ccc(/C=C3\SC(=S)N(c4ccc(F)cc4)C3=O)o2)c1 [NB229] | > 100 | > 100 | > 100 | > 376 |  |  | 
30 | COC(=O)C(C)N1C(=O)S/C(=C\c2ccc(-c3cc(C(=O)O)ccc3C)o2)C1=O (stereo not shown) [NB237] | > 100 | > 100 | > 100 | 67.7 ± 15 |  |  | 
31 | Cc1cccc(NC(=O)CN2C(=O)S/C(=C\c3ccc(-c4cccc(C(=O)O)c4C)o3)C2=O)c1 [NB209] | > 100 | > 100 | > 100 | 113 ± 14.8 |  |  | 
32 | Cc1ccc(NC(=O)CN2C(=O)S/C(=C\c3ccc(-c4cccc(C(=O)O)c4C)o3)C2=O)cc1 [NB196] | > 100 | > 100 | > 100 | > 336 |  |  | 
33 | O=C(O)c1cc(-c2ccc(/C=C3\SC(=O)N(CC(=O)N4CCOCC4)C3=O)o2)ccc1Cl [NB202] | > 100 | > 100 | > 100 |  |  |  | > 336
34 | C=CCN1C(=O)/C(=C/c2ccc(-c3cccc(C(=O)O)c3)o2)SC1=S [NB183] | 16.8 ± 0.457 | 0.323 ± 0.081 | 0.753 ± 0.081 | 174 ± 16.2 | 537.83 |  | 
35 | O=C(O)c1cccc(-c2ccc(/C=C3\SC(=S)N(Cc4ccccc4)C3=O)o2)c1 [NB182] | 1.68 ± 0.142 | 0.83 ± 0.024 | 2.25 ± 1.14 |  |  |  | 
36 | O=C(O)c1cc(-c2ccc(/C=C3\SC(=O)N(Cc4ccccc4)C3=O)o2)ccc1Cl [NB192] | > 100 | > 100 | > 100 |  |  |  | 
37 | O=C(O)c1cccc(-c2ccc(/C=C3\SC(=S)N(Cc4ccco4)C3=O)o2)c1 [NB238] |  |  |  |  | >14.57 |  | 
38 | C=CCN1C(=O)/C(=C/c2ccc(-c3cc(C(=O)O)cc(C(=O)O)c3)o2)SC1=S [NB225] |  | > 100 | > 100 | > 386 |  |  | 
39 | O=C(O)c1cc(-c2ccc(/C=C3\SC(=S)N(Cc4ccccc4)C3=O)o2)ccc1Cl [NB217] | 2.3 ± 0.131 | 0.767 ± 0.219 | 2.37 ± 0.657 |  |  |  | 
